Source: patent US7285567B2, “Halogenated benzamide derivatives” (Romark Laboratories, L.C., priority 2005, dated 2007)
Values after ≈ are worked out from the molar mass of the structure shown. Like-named read-outs stand apart in the source and are kept apart here.

What was measured:
[1] = tested on: Trichomonas vaginalis; assay: Antiparasite test by conventional means; format: cell-based; conditions: at concentrations of at least 50 μg/mL
Description: (§1) The above identified compounds according to Formula (IV) were tested by conventional means against Trichomis vaginalis, Giardia Intestinalis, and Trypanosoma brucei.

[2] = tested on: Trypanosoma brucei; assay: Antiparasite test by conventional means; format: cell-based; conditions: at concentrations of at least 50 μg/mL
Description: as §1

[3] = tested on: Giardia intestinalis; assay: Antiparasite test by conventional means; format: cell-based; conditions: at concentrations of at least 50 μg/mL
Description: as §1

[4] = tested on: Human Rhinovirus Type 39 (HRV-39); assay: Multiple cycle CPE inhibition assay on OH-I Hela cell monolayers; format: cell-based; conditions: Rhinovirus A, HRV39, HRV-39, OH-Hela, 2% McCoys + Hepes Buffer
Description: (§2) EC50 (μg/mL) values for 2-(acetolyloxy)-3-methyl-N-(5-bromo-2-thiazolyl)benzamide (RM4803), 2-(acetolyloxy)-3-methyl-N-(5-chloro-2-thiazolyl)benzamide (RM4804), and 2-(acetolyloxy)-3-methoxy-N-(5-bromo-2-thiazolyl)benzamide (RM4806), on Human Rhinovirus Type 39 (HRV-39), and H3N2 influenza virus, type A, using a multiple cycle CPE inhibition assay on OH-I Hela and Madin Darby Canine Kidney (MDCK) cell monolayers, respectively, were measured by microscopic and spectrophotometric methods. Pirodavir and Oseltamivir were included as positive controls.

[5] = tested on: H3N2 influenza virus, type A; assay: Multiple cycle CPE inhibition assay on MDCK cell monolayers; format: cell-based; conditions: 0% EMEM + Hepes + Trypsin
Description: as §2

[6] = Cytotoxicity in AVA5 cells (neutral red dye uptake); format: cell-based, human; conditions: human, 2-fold depression of neutral red dye uptake
Description: (§3) Anti-Hepatitis C Virus (HCV) analyses and an assessment of cytotoxicity were performed in a 3-day assay in the HCV replicon-containing human hepatoblastoma cell line, AVA5 (Okuse, C., Rinaudo, J. A., Farrar, K., Wells, F. & Korba, B. E. Enhancement of antiviral activity against hepatitis C virus in vitro by interferon combination therapy. Antivir. Res. 65, 23-34 (2005)) as previously described (Blight, K. J., Kolykhalov, A. A. & Rice, C. M. Efficient initiation of HCV RNA replication in cell culture. Science 290, 1972-1974 (2000)).
(§4) Values presented (±standard deviations [S.D.]) were calculated by linear regression analysis using data combined from all treated cultures. S.D. were calculated using the standard error of regression generated from the linear regression analyses (QuattroPro™). EC50, EC90=drug concentration at which a 2-fold, or a 10-fold depression of HCV RNA (relative to the average levels in untreated cultures), respectively, was observed. CC50=drug concentration at which a 2-fold depression of neutral red dye uptake was observed relative to the average levels in untreated cultures. Selectivity index=CC50/EC50.

[7] = tested on: hepatitis C virus (HCV) replicon; assay: HCV replication in AVA5 replicon cell culture, 3-day assay; format: cell-based
Description: as §3, §4

[8] = tested on: anaerobic bacteria (all 142 isolates); assay: CLSI agar dilution MIC, all anaerobic clinical isolates; format: cell-based; conditions: for MIC50 / MIC90: All (142 isolates), agar dilution, 48 h
[9] = tested on: Prevotella/Porphyromonas; assay: CLSI agar dilution MIC, anaerobic clinical isolates; format: cell-based; conditions: Prev/Porphy (26 isolates), 48 h
Description: (§5) Methods. Recent clinical anaerobic isolates (2000 to date) comprised 40 B. fragilis group, 26 Prevotella/Porphyromonas, 28 fusobacteria, 16 anaerobic Gram positive cocci, 14 anaerobic Gram-positive non-sporeforming rods and 18 clostridia. CLSI agar dilution MIC methodology with enriched Brucella blood agar and inocula of 1×10^5 cfu/spot was used. Plates were incubated in an anaerobic glove box at 35° C. for 48 h. Results.

[10] = tested on: B. fragilis group; assay: as above; format: cell-based; conditions: Bacteroides fragilis, B. fragilis gp (40 isolates), 48 h, 35° C.
Description: as §5

[11] = tested on: fusobacteria; assay: as above; format: cell-based; conditions: Fusobacteria (28 isolates), 48 h
Description: as §5

[12] = tested on: anaerobic Gram-positive non-sporeforming rods; assay: as above; format: cell-based; conditions: Gram + rods (14 isolates), 48 h
[13] = tested on: anaerobic Gram positive cocci; assay: as above; format: cell-based; conditions: Gram + cocci (16 isolates), 48 h
[14] = tested on: clostridia; assay: organism not typed; format: cell-based; conditions: Clostridia (18 isolates); agar dilution, 48 h; read-out: MIC50
[15] = microscopic reading, read-out: EC50, Microscopic
[16] = spectrophotometric reading, read-out: EC50, Spectrophotometer

Compound	antiparasite activity [1]	antiparasite activity [2]	antiparasite activity [3]	EC50 [4, 15]	EC50 [4, 16]	EC50 [5, 15]	EC50 [5, 16]	MIC50 [8]	MIC90 [8]	MIC50 [10]	MIC90 [10]	MIC50 [11]	MIC90 [11]	MIC50 [12]	MIC90 [12]	MIC50 [13]	MIC90 [13]	also measured
COc1cccc(C(=O)Nc2ncc(Br)s2)c1OC(C)=O [RM-4806, 2-(acetolyloxy)-3-methoxy-N-(5-bromo-2-thiazolyl)benzamide]	failed to exhibit antiparasite activitity	failed to exhibit antiparasite activitity	failed to exhibit antiparasite activitity	5 mg/L	4 mg/L	0.46 mg/L	0.57 mg/L											
CCOC(=O)c1ccc(OCCC2CCN(c3ccc(C)nn3)CC2)cc1 [Pirodavir, reference compound]				0.007 mg/L	0.004 mg/L													
NC(=O)c1ncn([C@@H]2O[C@H](CO)[C@@H](O)[C@H]2O)n1 [Ribavirin, reference compound]																		CC50 at 3 day [6]: 61 ± 2.9 µM; Selectivity Index ([7]; AVA5 cells, CC50/EC50): 0.6; EC50 ([7]; Hepatitis C virus, Ava5): 94 ± 10 µM; EC90 ([7]; Hepatitis C virus, Ava5): > 100 µM
O=C(Nc1ncc([N+](=O)[O-])s1)c1ccccc1O [Tizoxanide]								2 mg/L (≈ 7.54 µM)	4 mg/L (≈ 15.1 µM)	2 mg/L (≈ 7.54 µM)	4 mg/L (≈ 15.1 µM)	0.5 mg/L (≈ 1.89 µM)	2 mg/L (≈ 7.54 µM)	8 mg/L	> 32 mg/L	0.5 mg/L	1 mg/L	Activity against anaerobic bacteria groups (summary in words) ([8]; summary of MIC results): potent against all anaerobic bacteria groups except for Gram-positive anaerobic rods; MIC90 [9]: 16 mg/L (≈ 60.3 µM); MIC50 [14]: 0.25 mg/L (≈ 0.943 µM)
Cc1ncc([N+](=O)[O-])n1CCO [Metronidazole]								1 mg/L (≈ 5.84 µM)	2 mg/L (≈ 11.7 µM)	1 mg/L (≈ 5.84 µM)	2 mg/L (≈ 11.7 µM)	0.25 mg/L (≈ 1.46 µM)	0.25 mg/L (≈ 1.46 µM)	> 16 mg/L	> 16 mg/L	0.5 mg/L	1 mg/L	MIC50 [9]: 0.5 mg/L (≈ 2.92 µM)
CC(=O)Oc1c(C)cccc1C(=O)Nc1ncc(Cl)s1 [RM-4804, 2-(acetolyloxy)-3-methyl-N-(5-chloro-2-thiazolyl)benzamide]	failed to exhibit antiparasite activitity	failed to exhibit antiparasite activitity	failed to exhibit antiparasite activitity	0.57 mg/L	0.32 mg/L	0.93 mg/L	0.57 mg/L											
